≈ marks a conversion by molar mass, not a printed value. Calls of active or inactive are those of the source. No cut-off for these calls is given here.
Legend:
Staphylococcus aureus [1] = test: Antimicrobial activity against Staphylococcus aureus YZSA-24 harboring erythromycin resistance rRNA methylase C and methicillin resistance gene resistance locus assessed as inhibition of visible growth of bacteria incubated for 20 hrs by broth microdilution method; assay type: functional
Enterococcus faecium [2] = test: Antimicrobial activity against Enterococcus faecium HFY01 assessed as inhibition of visible growth of bacteria incubated for 20 hrs by broth microdilution method; assay type: functional
Enterococcus faecium [3] = test: Antimicrobial activity against Enterococcus faecium MC38 harboring erythromycin resistance rRNA methylase B and oxazolidinone-phenicol transferable resistance gene assessed as inhibition of visible growth of bacteria incubated for 20 hrs by broth microdilution method; assay type: functional
Staphylococcus aureus [4] = test: Antimicrobial activity against Staphylococcus aureus ATCC 29213 assessed as inhibition of visible growth of bacteria incubated for 20 hrs by broth microdilution method; assay type: functional
Streptococcus pyogenes = test: Antimicrobial activity against Streptococcus pyogenes DL02 harboring erythromycin-resistance rRNA methylase B assessed as inhibition of visible growth of bacteria incubated for 20 hrs by broth microdilution method; assay type: functional
Staphylococcus aureus [5] = test: Antibacterial activity against methicillin-resistant Staphylococcus aureus YZSA-24 infected in cyclophosphamide-induced neutrophil depleted female ICR mouse model of skin infection assessed as log reduction in bacterial load at 1 %, TOP preadministered with cyclophosphamide for 5 days followed by bacterial administration and measured after 25 hrs of compound administration relative to vehicle group; assay type: functional
Staphylococcus aureus [6] = test: Antimicrobial activity against Staphylococcus aureus YZSA-15 harboring erythromycin resistance rRNA methylase C and vancomycin resistance locus assessed as inhibition of visible growth of bacteria incubated for 20 hrs by broth microdilution method; assay type: functional
Streptococcus agalactiae = test: Antimicrobial activity against Streptococcus agalactiae DL03 harboring erythromycin-resistance rRNA methylase B assessed as inhibition of visible growth of bacteria incubated for 20 hrs by broth microdilution method; assay type: functional
Enterococcus faecalis [7] = test: Antimicrobial activity against Enterococcus faecalis JH2-2 assessed as inhibition of visible growth of bacteria incubated for 20 hrs by broth microdilution method; assay type: functional
Enterococcus faecium [8] = test: Antimicrobial activity against Enterococcus faecium QF31 harboring erythromycin resistance rRNA methylase B and chloramphenicol-florfenicol resistance methylase assessed as inhibition of visible growth of bacteria incubated for 20 hrs by broth microdilution method; assay type: functional
Staphylococcus aureus [9] = test: microbe, parasite or virus in culture; assay type: functional; settings: M92-1, time 20 hrs
Description: Antimicrobial activity against Staphylococcus aureus M92-1 harboring erythromycin resistance rRNA methylase B, tetracycline efflux protein L and oxazolidinone-phenicol transferable resistance gene assessed as inhibition of visible growth of bacteria incubated for 20 hrs by broth microdilution method

Streptococcus suis [10] = test: microbe, parasite or virus in culture; assay type: functional; settings: SH0918, time 20 hrs
Description: Antimicrobial activity against Streptococcus suis SH0918 harboring erythromycin-resistance rRNA methylase B, tetracycline efflux protein O and oxazolidinone phenicol transferable resistance gene assessed as inhibition of visible growth of bacteria incubated for 20 hrs by broth microdilution method

Staphylococcus aureus [11] = test: Antimicrobial activity against Staphylococcus aureus YZSA-21 harboring erythromycin resistance rRNA methylase C assessed as inhibition of visible growth of bacteria incubated for 20 hrs by broth microdilution method; assay type: functional
Staphylococcus aureus [12] = test: microbe, parasite or virus in culture; assay type: functional; settings: M147-2, time 20 hrs
Description: Antimicrobial activity against Staphylococcus aureus M147-2 harboring erythromycin resistance rRNA methylase B, tetracycline efflux protein L and chloramphenicol-florfenicol resistance methylase assessed as inhibition of visible growth of bacteria incubated for 20 hrs by broth microdilution method

Streptococcus suis [13] = test: Antimicrobial activity against Streptococcus suis P1/7 assessed as inhibition of visible growth of bacteria incubated for 20 hrs by broth microdilution method; assay type: functional
[14] = Hemolytic activity in Kunming mouse erythrocytes assessed as hemolysis at 2 times of MIC measured after 1 hrs by absorbance based assay relative to control; assay type: toxicity, cell-based, Erythrocyte; settings: read-out: Activity
[15] = Hemolytic activity in Kunming mouse erythrocytes assessed as hemolysis at 8 times of MIC measured after 1 hrs by absorbance based assay relative to control; assay type: toxicity, cell-based, Erythrocyte; settings: read-out: Activity
[16] = Cytotoxicity against human Caco-2 cells assessed as cell viability at 16 times of MIC incubated for 48 hrs by CCK8 assay (reference value: 99.54 %); assay type: toxicity, cell-based; settings: read-out: Activity
[17] = Hemolytic activity in Kunming mouse erythrocytes assessed as hemolysis at 1 time of MIC measured after 1 hrs by absorbance based assay relative to control; assay type: toxicity, cell-based, Erythrocyte; settings: read-out: Activity
Escherichia coli = test: Antimicrobial activity against Escherichia coli ATCC 25922 assessed as inhibition of visible growth of bacteria incubated for 20 hrs by broth microdilution method; assay type: functional
[18] = Cytotoxicity against human HEp-2 cells assessed as cell viability at 1 time of MIC incubated for 48 hrs by CCK8 assay (reference value: 100 %); assay type: toxicity, cell-based; settings: read-out: Activity
[19] = Cytotoxicity against human HEp-2 cells assessed as cell viability at 4 times of MIC incubated for 48 hrs by CCK8 assay (reference value: 100 %); assay type: toxicity, cell-based; settings: read-out: Activity
Pseudomonas aeruginosa [20] = test: Antimicrobial activity against Pseudomonas aeruginosa PA14 assessed as inhibition of visible growth of bacteria incubated for 20 hrs by broth microdilution method; assay type: functional
[21] = Hemolytic activity in Kunming mouse erythrocytes assessed as hemolysis at 4 times of MIC measured after 1 hrs by absorbance based assay relative to control; assay type: toxicity, cell-based, Erythrocyte; settings: read-out: Activity
Enterococcus faecalis [22] = test: Antimicrobial activity against Enterococcus faecalis J2 harboring erythromycin-resistance rRNA methylase B and oxazolidinone phenicol transferable resistance gene assessed as inhibition of visible growth of bacteria incubated for 20 hrs by broth microdilution method; assay type: functional
Enterococcus faecalis [23] = test: microbe, parasite or virus in culture; assay type: functional; settings: SF23-1, time 20 hrs
Description: Antimicrobial activity against Enterococcus faecalis SF23-1 harboring erythromycin-resistance rRNA methylase B, tetracycline efflux protein L and chloramphenicol-florfenicol resistance methylase assessed as inhibition of visible growth of bacteria incubated for 20 hrs by broth microdilution method

Salmonella enteritidis = test: Antimicrobial activity against Salmonella enteritis S1 assessed as inhibition of visible growth of bacteria incubated for 20 hrs by broth microdilution method; assay type: functional, Salmonella enterica subsp. enterica serovar Enteritidis; settings: Salmonella enterica
Staphylococcus aureus [24] = test: Bactericidal activity against Staphylococcus aureus ATCC 29213 assessed as bacterial killing at 8 times of MIC measured within 12 hrs by time-kill kinetics assay; assay type: functional, organism-based
[25] = Cytotoxicity against human HEp-2 cells assessed as cell viability at 2 times of MIC incubated for 48 hrs by CCK8 assay (reference value: 100 %); assay type: toxicity, cell-based; settings: read-out: Activity
Acinetobacter baumannii [26] = test: Antimicrobial activity against Acinetobacter baumannii AB11 assessed as inhibition of visible growth of bacteria incubated for 20 hrs by broth microdilution method; assay type: functional
[27] = Cytotoxicity against human HEp-2 cells assessed as cell viability at 8 times of MIC incubated for 48 hrs by CCK8 assay (reference value: 100 %); assay type: toxicity, cell-based; settings: read-out: Activity
Klebsiella pneumoniae = test: Antimicrobial activity against Klebsiella pneumoniae 9-1 assessed as inhibition of visible growth of bacteria incubated for 20 hrs by broth microdilution method; assay type: functional
[28] = Hemolytic activity in Kunming mouse erythrocytes assessed as hemolysis at 16 times of MIC measured after 1 hrs by absorbance based assay relative to control; assay type: toxicity, cell-based, Erythrocyte; settings: read-out: Activity
[29] = Cytotoxicity against human Caco-2 cells assessed as cell viability at 4 times of MIC incubated for 48 hrs by CCK8 assay (reference value: 99.54 %); assay type: toxicity, cell-based; settings: read-out: Activity
[30] = Hemolytic activity in Kunming mouse erythrocytes measured after 1 hrs by absorbance based assay; assay type: toxicity, cell-based, Erythrocyte
Staphylococcus aureus [31] = test: Bactericidal activity against Staphylococcus aureus ATCC 29213 assessed as decrease in bacterial number measured within 12 hrs by time-kill kinetics assay; assay type: functional, organism-based
[32] = Cytotoxicity against human Caco-2 cells assessed as cell viability at 2 times of MIC incubated for 48 hrs by CCK8 assay (reference value: 99.54 %); assay type: toxicity, cell-based; settings: read-out: Activity
Acinetobacter baumannii [33] = test: Antimicrobial activity against Acinetobacter baumannii 7979 assessed as inhibition of visible growth of bacteria incubated for 20 hrs by broth microdilution method; assay type: functional
[34] = Cytotoxicity against human HEp-2 cells assessed as cell viability at 16 times of MIC incubated for 48 hrs by CCK8 assay (reference value: 100 %); assay type: toxicity, cell-based; settings: read-out: Activity
[35] = Cytotoxicity against human Caco-2 cells assessed as cell viability at 1 time of MIC incubated for 48 hrs by CCK8 assay (reference value: 99.54 %); assay type: toxicity, cell-based; settings: read-out: Activity
Enterococcus faecalis [36] = test: Antimicrobial activity against Enterococcus faecalis ES01 harboring erythromycin-resistance rRNA methylase B and vanB-type vancomycin-resistance locus assessed as inhibition of visible growth of bacteria incubated for 20 hrs by broth microdilution method; assay type: functional
Staphylococcus aureus [37] = test: Drug resistance, ratio of MIC for Staphylococcus aureus ATCC 29213 measured after 28 days to MIC for Staphylococcus aureus ATCC 29213 measured after 20 hrs; assay type: functional
Pseudomonas aeruginosa [38] = test: Antimicrobial activity against Pseudomonas aeruginosa PA01 assessed as inhibition of visible growth of bacteria incubated for 20 hrs by broth microdilution method; assay type: functional
Staphylococcus aureus [39] = test: Bactericidal activity against Staphylococcus aureus ATCC 29213 assessed as bacterial eradication at 4 times of MIC measured after 24 hrs by time-kill kinetics assay relative to control; assay type: functional
[40] = Cytotoxicity against human Caco-2 cells assessed as cell viability at 8 times of MIC incubated for 48 hrs by CCK8 assay (reference value: 99.54 %); assay type: toxicity, cell-based; settings: read-out: Activity

CC(=O)NC[C@H]1CN(c2ccc(N3CCOCC3)c(F)c2)C(=O)O1 [LINEZOLID]
MIC (Staphylococcus aureus [1]): 0.5 µg/mL (≈ 1.48 µM)
MIC (Enterococcus faecium [2]): 2 µg/mL (≈ 5.93 µM)
MIC (Enterococcus faecium [3]): 2 µg/mL (≈ 5.93 µM)
MIC (Staphylococcus aureus [4]): 1 µg/mL (≈ 2.96 µM)
MIC (Streptococcus pyogenes): < 0.06 µg/mL
Activity (Staphylococcus aureus [5]): 4.05 log10CFU/ml
MIC (Staphylococcus aureus [6]): 0.5 µg/mL (≈ 1.48 µM)
MIC (Streptococcus agalactiae): 1 µg/mL (≈ 2.96 µM)
MIC (Enterococcus faecalis [7]): 0.5 µg/mL (≈ 1.48 µM)
MIC (Enterococcus faecium [8]): 2 µg/mL (≈ 5.93 µM)
MIC (Staphylococcus aureus [9]): 8 µg/mL (≈ 23.7 µM)
MIC (Streptococcus suis [10]): 8 µg/mL (≈ 23.7 µM)
MIC (Staphylococcus aureus [11]): 1 µg/mL (≈ 2.96 µM)
MIC (Staphylococcus aureus [12]): 8 µg/mL (≈ 23.7 µM)
MIC (Streptococcus suis [13]): 0.125 µg/mL (≈ 0.371 µM)

COc1ccc2nc3c(c(C(=O)O)c2c1)CC(C)C/C3=C\c1cccc(-c2ccc(Cl)c(C(F)(F)F)c2)c1 (racemic)
MIC (Staphylococcus aureus [1]): 2 µg/mL (≈ 3.72 µM)
MIC (Enterococcus faecium [2]): 4 µg/mL (≈ 7.44 µM)
hemolysis at 1 h, 2 times of MIC [14]: 0%
hemolysis at 1 h, 8 times of MIC [15]: 22.3%
viability at 48 h, 16 times of MIC [16]: 5.84%
hemolysis at 1 h, 1 time of MIC [17]: 0%
MIC (Escherichia coli): > 128 µg/mL
MIC (Enterococcus faecium [3]): 4 µg/mL (≈ 7.44 µM)
MIC (Staphylococcus aureus [4]): 2 µg/mL (≈ 3.72 µM)
viability at 48 h, 1 time of MIC [18]: 89.8%
viability at 48 h, 4 times of MIC [19]: 66%
MIC (Streptococcus pyogenes): 16 µg/mL (≈ 29.7 µM)
MIC (Staphylococcus aureus [6]): 2 µg/mL (≈ 3.72 µM)
MIC (Streptococcus agalactiae): 32 µg/mL (≈ 59.5 µM)
MIC (Pseudomonas aeruginosa [20]): > 128 µg/mL
hemolysis at 1 h, 4 times of MIC [21]: 1.8%
MIC (Enterococcus faecalis [22]): 8 µg/mL (≈ 14.9 µM)
MIC (Enterococcus faecalis [7]): 4 µg/mL (≈ 7.44 µM)
MIC (Enterococcus faecalis [23]): 4 µg/mL (≈ 7.44 µM)
MIC (Salmonella enteritidis): > 128 µg/mL
Activity (Staphylococcus aureus [24]): Active
viability at 48 h, 2 times of MIC [25]: 84.8%
MIC (Acinetobacter baumannii [26]): > 128 µg/mL
MIC (Enterococcus faecium [8]): 4 µg/mL (≈ 7.44 µM)
viability at 48 h, 8 times of MIC [27]: 35.5%
MIC (Klebsiella pneumoniae): > 128 µg/mL
MIC (Staphylococcus aureus [9]): 2 µg/mL (≈ 3.72 µM)
MIC (Streptococcus suis [10]): 16 µg/mL (≈ 29.7 µM)
hemolysis at 1 h, 16 times of MIC [28]: 63.5%
MIC (Staphylococcus aureus [11]): 2 µg/mL (≈ 3.72 µM)
viability at 48 h, 4 times of MIC [29]: 51.9%
HC50 at 1 h [30]: 25.9 µg/mL
Activity (Staphylococcus aureus [31]): Dose-dependent-effect
viability at 48 h, 2 times of MIC [32]: 69.8%
MIC (Acinetobacter baumannii [33]): > 128 µg/mL
viability at 48 h, 16 times of MIC [34]: 2.42%
MIC (Staphylococcus aureus [12]): 2 µg/mL (≈ 3.72 µM)
viability at 48 h, 1 time of MIC [35]: 89.6%
MIC (Streptococcus suis [13]): 8 µg/mL (≈ 14.9 µM)
MIC (Enterococcus faecalis [36]): 4 µg/mL (≈ 7.44 µM)
Ratio (Staphylococcus aureus [37]): 4
MIC (Pseudomonas aeruginosa [38]): > 128 µg/mL
Activity (Staphylococcus aureus [39]): 100%
viability at 48 h, 8 times of MIC [40]: 36.6%
